Measured values taken from PubChem BioAssay (NCI).
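Grown in 96-well plates, cells were treated for 48 hours with each compound at five concentrations. Insufficient inhibition: endpoint recorded as highest concentration tested. GI50 is the concentration that inhibits growth by half. TGI denotes the concentration required for complete inhibition of growth.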

Legend:
Assay in all cases: NCI anticancer screen, dose series, 48 h
HOP-62 NSCLC = test system: HOP-62 NSCLC
HT29 colon = test system: HT29 colon
IGROV1 ovarian = test system: IGROV1 ovarian
LOX IMVI melanoma = test system: LOX IMVI melanoma
SF-295 CNS = test system: SF-295 CNS
SNB-75 CNS = test system: SNB-75 CNS
UACC-62 melanoma = test system: UACC-62 melanoma
UO-31 renal = test system: UO-31 renal
HCC-2998 colon = test system: HCC-2998 colon
HOP-92 NSCLC = test system: HOP-92 NSCLC

Row | Structure (SMILES) | TGI (HOP-62 NSCLC) | TGI (HT29 colon) | TGI (IGROV1 ovarian) | TGI (LOX IMVI melanoma) | TGI (SF-295 CNS) | TGI (SNB-75 CNS) | TGI (UACC-62 melanoma) | TGI (UO-31 renal) | GI50 (HCC-2998 colon) | TGI (HCC-2998 colon) | GI50 (HOP-92 NSCLC) | TGI (HOP-92 NSCLC) | GI50 (HT29 colon) | GI50 (IGROV1 ovarian) | GI50 (LOX IMVI melanoma) | GI50 (SF-295 CNS) | GI50 (SNB-75 CNS) | GI50 (UACC-62 melanoma) | GI50 (UO-31 renal) | GI50 (HOP-62 NSCLC)
1 | CC(=O)OC1CC2Oc3ccc(C)cc3C(C)(O2)C1=O (centres undefined) | > 100 µM | > 100 µM | > 100 µM | > 100 µM | > 100 µM | > 100 µM | > 100 µM | > 100 µM | – | – | – | – | – | – | – | – | – | – | – | –
2 | Cc1nccc2c3ccc(OCc4cn(-c5ccc(Cl)cc5)nn4)cc3n(CCCc3ccccc3)c12 | – | > 33.3 µM | > 33.3 µM | 4.88 µM | 12.7 µM | 1.57 µM | 7.43 µM | 1.37 µM | 6.13 µM | > 33.3 µM | 4.98 µM | 21.3 µM | 3.07 µM | 6.93 µM | 1.08 µM | 4.81 µM | 0.565 µM | 1.89 µM | 0.545 µM | –
3 | CC(=O)C1C(=O)NC(=O)C1=O (centres undefined) | > 100 µM | > 100 µM | > 100 µM | > 100 µM | > 100 µM | > 100 µM | > 100 µM | > 100 µM | – | > 100 µM | – | > 100 µM | – | – | – | – | – | – | – | –
4 | CC(C)CC(=O)Nc1n[nH]c2c1CN(C(=O)C1CCN(C)CC1)C2(C)C | > 10 µM | > 10 µM | > 10 µM | 8.63 µM | > 10 µM | 4.14 µM | – | > 10 µM | 1.17 µM | > 10 µM | 0.451 µM | 7.54 µM | 0.79 µM | 0.579 µM | 0.209 µM | 1.35 µM | 1.02 µM | – | > 10 µM | 1.2 µM
5 | CCN(CC)CCCC(C)Nc1nc(C)cc(Nc2ccc3nc(C)cc(N)c3c2)n1 (centres undefined) | > 100 µM | 75.2 µM | > 100 µM | 39.8 µM | 28.7 µM | > 100 µM | > 100 µM | > 100 µM | 26.9 µM | 82.9 µM | – | – | 24.4 µM | 28 µM | 18.4 µM | 0.0287 µM | 19.8 µM | 39.2 µM | 86.1 µM | 38.9 µM
6 | C#CCN(N=O)C(=O)NC(CCCNC(=O)OCc1ccccc1)C(=O)OCc1ccccc1 (centres undefined) | > 100 µM | > 100 µM | > 100 µM | > 100 µM | > 100 µM | > 100 µM | > 100 µM | > 100 µM | – | > 100 µM | – | 96.3 µM | – | – | – | – | – | – | – | –
7 | N#CC(C#N)N=Nc1ccc(Br)cc1 | > 100 µM | > 38.5 µM | > 73.6 µM | 16.5 µM | > 100 µM | > 100 µM | 10.9 µM | 7.05 µM | 8.04 µM | 33.1 µM | 0.249 µM | 1.84 µM | 3.39 µM | 3.68 µM | 3.75 µM | 30.3 µM | 13.7 µM | 1.91 µM | 1.26 µM | 27.1 µM
8 | Nc1ccccc1NC(=O)c1ccc(CCCC(=O)Nc2ccc(C3CC3N)cc2)cc1 (centres undefined) | 20.7 µM | > 100 µM | > 100 µM | 3.47 µM | 9.43 µM | 50.4 µM | 3.03 µM | 20.6 µM | 1.72 µM | 5.65 µM | 0.359 µM | 4.21 µM | 0.995 µM | 4.24 µM | 1.45 µM | 1.96 µM | 1.89 µM | 0.573 µM | 4.62 µM | 2.01 µM
9 | Cc1nc([C@H]2CC[C@H]3[C@@H]4CCC5=CC(=O)CC[C@]5(C)[C@H]4CC[C@]23C)cs1 | > 100 µM | > 100 µM | > 100 µM | > 100 µM | > 100 µM | > 100 µM | > 100 µM | – | 6.58 µM | > 100 µM | > 28.9 µM | > 100 µM | 5.15 µM | > 40.3 µM | 5.09 µM | 2.21 µM | > 27 µM | 4.1 µM | – | > 100 µM
10 | COc1ccc(-c2nc(C(=O)c3ccccc3)n(CC(=O)c3ccccc3)c2-c2ccc(OC)cc2)cc1 | > 100 µM | > 100 µM | > 100 µM | > 100 µM | > 100 µM | > 100 µM | > 100 µM | > 100 µM | > 100 µM | > 100 µM | 12.4 µM | > 100 µM | > 100 µM | > 100 µM | > 100 µM | > 100 µM | > 100 µM | > 100 µM | > 100 µM | > 100 µM
11 | O=C(O)/C(Cl)=C(\Cl)C(=O)NC1C2CC3CC(C2)CC1C3 (centres undefined) | > 100 µM | > 100 µM | > 100 µM | > 100 µM | > 100 µM | > 100 µM | > 100 µM | > 100 µM | – | > 100 µM | – | > 100 µM | – | – | – | – | – | – | – | –
12 | Fc1ccc(-c2ncn(C3CCNCC3)c2-c2ccnc(Oc3ccc(F)c(F)c3)n2)cc1 | 9.56 µM | 8.12 µM | > 22.6 µM | 9.14 µM | > 17.2 µM | > 25 µM | 10.3 µM | > 25 µM | 3.84 µM | 7.77 µM | 3.28 µM | 15.6 µM | 4.36 µM | 8.61 µM | 4.29 µM | 7.15 µM | 8.64 µM | 4.99 µM | 6.25 µM | 4.83 µM
13 | O=C(CC1(O)C(=O)Nc2ccccc21)c1ccco1 (centres undefined) | > 100 µM | > 100 µM | > 100 µM | > 100 µM | > 100 µM | > 100 µM | > 100 µM | > 100 µM | – | – | – | > 100 µM | – | – | – | – | – | – | – | –
14 | OC(COc1ccc(F)cc1)Cn1cnc2c(Cl)ncnc21 (centres undefined) | > 100 µM | > 100 µM | > 100 µM | > 100 µM | > 100 µM | > 100 µM | > 100 µM | > 100 µM | 19.3 µM | 42.3 µM | > 100 µM | > 100 µM | > 100 µM | 47.4 µM | 39.1 µM | > 100 µM | > 100 µM | 79 µM | > 100 µM | > 100 µM
